Measurements: US7955425B2, “Ink composition for ink jet recording” (Seiko Epson Corporation, priority 2008, dated 2011)

Key:
[1] = Evaluation of solubility of poorly water-soluble alkane diol; assay type: physicochemical; details: for Ability to dissolve 1,2-octanediol: two-component aqueous alcohol solution with 10% by weight 1,2-octanediol and 10% by weight 1,2-hexanediol, FIG. 1
Experimental: An aqueous solution containing 10% by weight of 1,2-octanediol was prepared using 1,2-octanediol as a poorly water-soluble alkane diol.
Five alcohol solvents, 1,6-hexanediol (hereinafter referred to as 1,6-HED), 3-methyl-1,5-pentanediol (hereinafter referred to as 3 MPED), 1,5-pentanediol (hereinafter referred to as 1,5-PED), 1,2-hexanediol (hereinafter referred to as HED), and 2,2′-dimethylpropanediol (hereinafter referred to as 2 MPRD) were added to 10 g of the aqueous solution until the aqueous solution became transparent.
In place of the aqueous solution described above, an aqueous solution that contains 10% by weight of 1,2-octanediol as the poorly water-soluble alkane diol and 10% by weight of 1,2-hexanediol as the water-soluble 1,2-alkane diol was prepared, and the alcohol solvents were added to the aqueous solution until the aqueous solution became transparent, as described above.

[2] = Surface tension of aqueous solution; assay type: physicochemical

Structure (SMILES) | surface tension ([2]; 15% aqueous solution) | Ability to dissolve 1,2-octanediol [1] | further results
CCCCCCC(O)CO (stereo not shown) [1,2-octanediol] |  |  | Solubility of 1,2-octanediol in water ([1]; aqueous solution containing 10% by weight of 1,2-octanediol): incompletely dissolved
CCCCC(O)CO (stereo not shown) [1,2-hexanediol] | 26.7 mN/m |  | 
CC(CCO)CCO [3 MPED, 3-methyl-1,5-pentanediol] |  | higher ability to dissolve 1,2-octanediol than the addition of HED alone | 
CC(C)(CO)CO [2 MPRD, 2,2′-dimethylpropanediol] |  | higher ability to dissolve 1,2-octanediol than the addition of HED alone | 
CC(CCO)CCO [3-methyl-1,5-butanediol] |  |  | surface tension ([2]; 10% aqueous solution): 45.8 mN/m
CC(CO)CO [2-methyl-1,3-propanediol] |  |  | surface tension ([2]; 10% aqueous solution): 57.5 mN/m
OCCCCCO [1,5-PED, 1,5-pentanediol] |  | higher ability to dissolve 1,2-octanediol than the addition of HED alone | 
OCCCCCCO [1,6-HED, 1,6-hexanediol] |  | higher ability to dissolve 1,2-octanediol than the addition of HED alone | 

Continued, in another order:

surface tension ([2]; 15% aqueous solution) | Structure (SMILES) | Ability to dissolve 1,2-octanediol [1] | further results
25.4 mN/m | CC(C)CC(O)CO (stereo not shown) [4-methyl 1,2-pentanediol] |  | 
26.1 mN/m | CC(C)(C)C(O)CO (stereo not shown) [3,3-dimethyl-1,2-butanediol] |  | 
